A word on the IC50: it is the midpoint of a concentration-inhibition curve. A higher IC50 goes with lower potency.

The source of these data is patent US8518891B2 (priority 2006, dated 2013).

Data set [1] concerns DU145 human prostate cancer cell line. Kind of data set: In vitro antiproliferative activity assay in non-PSA-producing DU145 cells. Format: cell-based. To be noted: 72 h drug exposure. From the text: (§1) Furthermore, analogs 5b and 5c were synthesized with an electron-withdrawing fluorine atom at C2 (5b) and C3 (5c), respectively.
Data set [2] in a line: Stability of peptide-linker-drug conjugates in the absence of PSA, disappearance monitored by HPLC. Format: physicochemical. To be noted: for half-life: 0.1 M phosphate buffer, pH 7.4, 37° C., read-out: T1/2 -PSA (stability) (converted); for Stability relative to 5a in the absence of PSA: in words. On the procedure: (§2) First, the stability and PSA cleavage of glutaryl-Hyp-Ala-Ser-Chg-Gln-aminobenzyl phosphoramide mustard without substitutions on the benzyl ring (5a) was tested by monitoring the disappearance of the peptide-linker-drug conjugate using HPLC. […] Thus, peptide-linker-drug conjugate 5a is a substrate of PSA. The hydrolysis in the presence of PSA was 40 times faster than that in the absence of PSA. But, the instability in the absence of PSA was a concern. This instability can be addressed by introducing an electron-withdrawing fluorine atom on the aromatic ring as shown in Table 1. […] In the presence of PSA, they were more quickly hydrolyzed with t½of 43 and 57 min, respectively.

For the next data set, the target named is PSA (Homo sapiens, UniProt P07288). Put plainly: PSA cleavage of peptide-linker-drug conjugates, disappearance monitored by HPLC. To be noted: for half-life: PSA, in the presence of PSA; for Stability Ratio between T1/2 in the absence and presence of PSA: T1/2 (-PSA) / T1/2 (+PSA). Format: biochemical. On the procedure:
as §2

Data set [3] relates to LNCaP human prostate cancer cell line. Put plainly: In vitro antiproliferative activity assay in PSA-producing LNCaP cells. Format: cell-based. To be noted: 72 h drug exposure.
Excerpt: as §1

The mark [4] stands for this setting: read-out: T1/2 +PSA (PSA-catalyzed cleavage) (converted).
The mark [5] stands for this setting: read-out: t½ in the presence of PSA.

Several values for one entry are separate records, joined by “and”; a condition that tells them apart may be missing. Equal entries are not always repeated. Where two headings read alike, the source gives them in different places. Numbered stars: 1 amine (or outer) side, 2 acyl side, 3 side chain; on linkers, the order of the positions; unused ones are H or OH. Square brackets hold non-standard residues; d marks the D form. Peptide text beside a SMILES is read from it. * marks the point of attachment. X5 = NP(=O)(OCc1c(F)c(F)c(N*)c(F)c1F)N(CCCl)CCCl; X4 = NP(=O)(OCc1c(F)cc(N*)cc1F)N(CCCl)CCCl; X2 = NP(=O)(OCc1ccc(N*)c(F)c1)N(CCCl)CCCl; X1 = NP(=O)(OCc1ccc(N*)cc1F)N(CCCl)CCCl; X3 = NP(=O)(OCc1ccc(N*)cc1)N(CCCl)CCCl; Glutaryl = O=C(CCCC(=O)[*:2])[*:1]; Hyp = O=C(O)[C@@H]1C[C@@H](O)CN1; Chg = N[C@H](C(=O)O)C1CCCCC1

Sequence of PSA (P07288 25-261): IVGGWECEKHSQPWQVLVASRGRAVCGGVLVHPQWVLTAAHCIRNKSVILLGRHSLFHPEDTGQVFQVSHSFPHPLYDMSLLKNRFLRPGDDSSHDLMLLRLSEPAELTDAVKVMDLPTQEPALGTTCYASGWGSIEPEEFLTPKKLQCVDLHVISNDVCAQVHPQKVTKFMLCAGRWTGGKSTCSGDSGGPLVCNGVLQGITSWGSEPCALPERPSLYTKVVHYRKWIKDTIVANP

As for `C[C@H](NC(=O)[C@@H]1C[C@@H](O)CN1C(=O)CCCC(=O)O)C(=O)N[C@@H](CO)C(=O)N[C@H](C(=O)N[C@@H](CCC(N)=O)C(=O)Nc1c(F)c(F)c(COP(N)(=O)N(CCCl)CCCl)c(F)c1F)C1CCCCC1` (stereo partly drawn) [5e, glutaryl-Hyp-Ala-Ser-Chg-Gln-NH-2,3,5,6-tetrafluorobenzyl phosphoramide mustard] (Glutaryl-[Hyp]AS[Chg]Q-X5), the half-maximal inhibitory concentration (IC50) in data set [1] and in data set [3] was more than 100 µM in each case. Besides, the half-life in data set [2] was 178 h; at PSA (setting [4]) it was 1.1 h. Besides, the “Stability Ratio between T1/2 in the absence and presence of PSA” value on PSA is 162.

`C[C@H](NC(=O)[C@@H]1C[C@@H](O)CN1C(=O)CCCC(=O)O)C(=O)N[C@@H](CO)C(=O)N[C@H](C(=O)N[C@@H](CCC(N)=O)C(=O)Nc1ccc(COP(N)(=O)N(CCCl)CCCl)c(F)c1)C1CCCCC1` (stereo partly drawn) [5b, glutaryl-Hyp-Ala-Ser-Chg-Gln-NH-2-fluorobenzyl phosphoramide mustard] (Glutaryl-[Hyp]AS[Chg]Q-X1): the IC50 in data set [1] was more than 100 µM; in data set [3], 5.3 µM. Besides, the half-life in data set [2] is 105 h; at PSA (setting [4]), 0.93 h; at PSA (setting [5]) it was 0.717 h. Also, the “Stability relative to 5a in the absence of PSA” value in data set [2] is given as “much more stable than 5a”. Further, on PSA, the “Stability Ratio between T1/2 in the absence and presence of PSA” value was found to be 113.

Consider `C[C@H](NC(=O)[C@@H]1C[C@@H](O)CN1C(=O)CCCC(=O)O)C(=O)N[C@@H](CO)C(=O)N[C@H](C(=O)N[C@@H](CCC(N)=O)C(=O)Nc1ccc(COP(N)(=O)N(CCCl)CCCl)cc1)C1CCCCC1` (stereo partly drawn) [5a, glutaryl-Hyp-Ala-Ser-Chg-Gln-NH-benzyl phosphoramide mustard] (Glutaryl-[Hyp]AS[Chg]Q-X3), for which the half-maximal inhibitory concentration (IC50) is ~35 µM and 35 µM in data set [1]; 11 µM in data set [3]. The half-life in data set [2] is 48 h; at PSA (setting [4]) it was 1.2 h. The “Stability Ratio between T1/2 in the absence and presence of PSA” value on PSA came to 40.

As to `C[C@H](NC(=O)[C@@H]1C[C@@H](O)CN1C(=O)CCCC(=O)O)C(=O)N[C@@H](CO)C(=O)N[C@H](C(=O)N[C@@H](CCC(N)=O)C(=O)Nc1cc(F)c(COP(N)(=O)N(CCCl)CCCl)c(F)c1)C1CCCCC1` (stereo partly drawn) [5d, glutaryl-Hyp-Ala-Ser-Chg-Gln-NH-2,6-difluorobenzyl phosphoramide mustard] (Glutaryl-[Hyp]AS[Chg]Q-X4), the IC50 in data set [1] is more than 100 µM; in data set [3], 20 µM. Moreover, the half-life is 131 h in data set [2] and 1.75 h at PSA (setting [4]). Moreover, the “Stability Ratio between T1/2 in the absence and presence of PSA” value at PSA came out at 75.

For `C[C@H](NC(=O)[C@@H]1C[C@@H](O)CN1C(=O)CCCC(=O)O)C(=O)N[C@@H](CO)C(=O)N[C@H](C(=O)N[C@@H](CCC(N)=O)C(=O)Nc1ccc(COP(N)(=O)N(CCCl)CCCl)cc1F)C1CCCCC1` (stereo partly drawn) [5c, glutaryl-Hyp-Ala-Ser-Chg-Gln-NH-3-fluorobenzyl phosphoramide mustard] (Glutaryl-[Hyp]AS[Chg]Q-X2), the 50% inhibitory concentration (IC50) was more than 100 µM in data set [1] and 29 µM in data set [3]. For the same compound, the half-life in data set [2] is 462 h; on PSA (setting [4]), 0.65 h; at PSA (setting [5]), 0.95 h. For the same compound, the “Stability relative to 5a in the absence of PSA” value in data set [2] is recorded as “much more stable than 5a”. Also, the “Stability Ratio between T1/2 in the absence and presence of PSA” value on PSA was found to be 711.
